This is an account of results in patent US20260274861A1, “FUSED RING COMPOUND, PREPARATION METHOD THEREFOR AND MEDICINAL APPLICATION THEREOF” (JIANGSU HENGRUI PHARMACEUTICALS CO., LTD., priority 2022, published 2026).

The subject of one series is AGS cells. Put plainly: Inhibition of 3D proliferation of AGS cells (CellTiter-Glo 3D). It counts as cell-based. Particulars: Homo sapiens, 120 h, 5 days. The protocol: (§1) The inhibitory effects of the compounds of the present disclosure on the KRAS target were evaluated by assessing the inhibitory effects of the compounds of the present disclosure on the 3D proliferation of GP2d and AGS cells.
AGS cells were cultured in a complete culture medium, namely an RPM11640 medium (Hyclone, SH30809.01) containing 10% fetal bovine serum (Corning, 35-076-CV). On the first day of the experiment, the AGS cells were seeded into a 96-well low-adsorption plate (Corning, CLS7007-24EA) with a complete culture medium at a density of 1000 cells/well, with each well containing 90 μL of a cell suspension. The plate was centrifuged at 2000 rpm for 5 min at room temperature and then incubated overnight in a 37° C., 5% CO2 cell incubator.
(§2) The next day, the test compounds, serially diluted in a complete culture medium, were added at 10 μL/well. The final concentrations of the compounds for GP2d cells were 9 concentration points obtained by 5-fold serial dilution from 1 μM, and the final concentrations of the compounds for AGS cells were 9 concentration points obtained by 5-fold serial dilution from […]. A blank control containing 0.5% DMSO was set for both types of cells. The plates were incubated in a 37° C., 5% CO2 cell incubator for 5 days. On the seventh day, the 96-well cell culture plates were taken out, and 50 μL of the CellTiter-Glo® 3D Cell Viability Assay reagent (Promega, G^9682) was added to each well. The plates were shaken at room temperature in the dark for 25 min. The contents in the wells were pipetted for good uniformity, and 100 μL of the mixture was transferred from each well to a white impermeable 96-well plate (PerkinElmer, 6005290). The luminescence signal values were obtained using a multi-mode microplate reader (PerkinElmer, EnVision2105).
A general note: Cellular ATP, detected with luciferase, serves as a proxy for viable cell number.

The test system of the next series is GP2d cells. Nature of the series: Inhibition of 3D proliferation of GP2d cells (CellTiter-Glo 3D). Format: cell-based. Particulars: 120 h, 5 days. The procedure: as §1
GP2d cells were cultured in a complete culture medium, namely a DMEM/high glucose culture medium (Hyclone, SH30243.01) containing 10% fetal bovine serum (Corning, 35-076-CV). On the first day of the experiment, the GP2d cells were seeded into a 96-well low-adsorption plate (Corning, CLS7007-24EA) with a complete culture medium at a density of 1000 cells/well, with each well containing 90 μL of a cell suspension. The plate was centrifuged at 2000 rpm for 5 min at room temperature and then incubated overnight in a 37° C., 5% CO2 cell incubator.
as §2

In series [1] the test system is ERK phosphorylation in AGS cells. Nature of the series: Inhibition of ERK phosphorylation in AGS cells (HTRF method). Format: cell-based. Particulars: Homo sapiens, 1 h incubation. The procedure:
In the experiment, the inhibitory effects of the compounds of the present disclosure on the KRAS target were evaluated by assessing the inhibitory effects of the compounds on ERK phosphorylation in cells and based on IC50 values.
AGS cells were cultured in an RPMI1640 (Hyclone, SH30809.01) complete culture medium containing 10% fetal bovine serum. On the first day of the experiment, the AGS cells were seeded into a 96-well plate with a complete culture medium at a density of 40,000 cells/well, with each well containing 190 μL of a cell suspension. The plate was incubated overnight in a 37° C., 5% CO2 cell incubator.
The next day, the test compounds, serially diluted in a complete culture medium, were added at 10 μL/well. The final concentrations of the compounds were 9 concentration points obtained by 5-fold serial dilution from 10 μM. A blank control containing 0.5% DMSO was set. The plate was incubated in a 37° C., 5% CO2 cell incubator for 1 h. After the incubation, the 96-well cell culture plate was taken out, and the culture medium was removed using a pipette. The plate was washed once by adding 200 μL of PBS (Shanghai BasalMedia Technologies Co., Ltd., B320) to each well. The PBS was removed using a pipette, and 50 μL of a lysis buffer (Cisbio, 64KL1FDF) containing a blocking reagent (Cisbio, 64KB1AAC) was added to each well. The plate was shaken on a shaker at room temperature for 40 min for lysis. After lysis, the lysate was pipetted for good uniformity. […]
On the third day, the fluorescence values at an excitation wavelength of 337 nm and emission wavelengths of 665 nm and 620 nm were obtained using a multi-mode microplate reader (PerkinElmer, EnVision).
The ratio of the fluorescence signal at 665 nm to the fluorescence signal at 620 nm was calculated for phosphorylated ERK1/2 and total ERK1/2 for the compounds at various concentrations, and IC50 values for the inhibitory activity of the compounds were calculated using Graphpad Prism software based on the concentrations of the compounds and the phosphorylated ERK1/2 ratios corrected using the total ERK1/2 ratios.
(In general: TR-FRET usually uses a lanthanide donor and a delayed reading to cut background.)

For another series, the system named is AsPC-1 cells. Put plainly: Inhibition of 3D proliferation of AsPC-1 cells (CellTiter-Glo 3D). Particulars: Homo sapiens, ASPC1, 120 h, 5 days. Format: cell-based. The procedure: On the first day of the experiment, well-grown AsPC-1 cells with 70%-80% confluency were digested and resuspended in an RPMI 1640 culture medium (Hyclone, SH30809.01) containing 10% FBS, and the cell density was adjusted to the desired level. The cell suspension was added to a U-shaped low-adsorption 96-well plate (Corning, CLS7007-24EA) at 90 μL/well, with a cell density of 1500 cells/well. The cell plate was centrifuged at 2500 rpm for 5 min and then incubated overnight in a 37° C., 5% CO2 incubator. The next day, 20 mM test compounds dissolved in DMSO were diluted to an initial concentration of 2 mM and then serially diluted 5-fold, and a total of 9 concentration points were obtained. Control wells were set using DMSO. The serially diluted compounds were then further diluted 20-fold with a culture medium. The test compounds, diluted with the culture medium, were added to the cell plate at 10 μL/well, with the final concentrations of the compounds being 9 concentration points obtained by 5-fold serial dilution from an initial concentration of 10 μM. Cell wells containing 0.5% DMSO were set as vehicle control wells, and wells containing only the culture medium and 0.5% DMSO were set as blank control wells. A duplicate well was set for each concentration of the compounds and the control wells, with the final concentration of DMSO in each well being 0.5%. The cell plate was centrifuged at 2500 rpm for 3 min and then incubated in a 37° C., 5% CO2 incubator for 5 days. On the seventh day, the 96-well cell culture plate was taken out, and 50 μL of the CellTiter-Glo® Luminescent 3D Cell Viability Assay reagent (Promega, G^9683) was added to each well. The plates were shaken at room temperature in the dark for 25 min. The contents in the wells were pipetted up and down for good uniformity, and then 100 μL of the mixture was transferred from each well to a white impermeable OptiPlate™-96-well plate (PerkinElmer, 6005290). The luminescence signal values were obtained using a multi-mode microplate reader (PerkinElmer, EnVision2105).
The inhibition rate was calculated using the formula: inhibition rate=(luminescence valuevehicle control well−luminescence valuetest compound)/(luminescence valuevehicle control well−luminescence valueblank control well)×100%. Curves were plotted using GraphPad Prism software based on the various concentrations of the compounds and the corresponding inhibition rates, and IC50 values for the compounds were calculated.

Series [2] can be described thus: Pharmacokinetic evaluation in balb/c nude mice after intragastric administration. Format: in vivo. Particulars: female, mouse, po, i.g., 40.0 mg/kg, plasma; for Vd/F: read-out: Apparent distribution volume Vz/F; for AUC(0-t): read-out: Area under curve AUC0-t; for CL/F: read-out: Clearance rate CL/F; for half-life: read-out: Half-life T½ (converted); for Cmax: read-out: Plasma concentration Cmax. The procedure:
Balb/c nude mice were used as test animals. After intragastric (i.g.) administration of example compounds to balb/c nude mice, the plasma concentrations at different time points were determined by the LC/MS/MS method. The pharmacokinetic behavior of the compounds of the present disclosure in balb/c nude mice was studied, and their pharmacokinetic profiles were evaluated.
Eighteen female balb/c nude mice, provided by Vital River Laboratory Animal Technology Co., Ltd. with production license SCXK (Zhejiang) 2019-0001, were evenly divided into 2 groups.
A certain amount of a test compound was weighed out, and 5% DMF+45% PG+50% (10% HS15-pH 7.4 buffer)+400 mpk SNAC was added to prepare a 4 mg/mL colorless clear solution.
The dose administered was 40.0 mg/kg, and the volume was 10 mL/kg.
0.1-mL blood samples were collected from the orbit before administration and 0.25 h, 0.5 h, 1.0 h, 2.0 h, 4.0 h, 6.0 h, 8.0 h, 11.0 h, and 24.0 h after administration. The blood samples were placed into EDTA-K2 anticoagulation test tubes and centrifuged at 10,000 rpm for 1 min (4° C.), and plasma was separated within 1 h and stored at −20° C. before analysis. The procedure starting from the blood collection to the centrifugation was performed under ice-bath conditions.
After administration of different concentrations of the test compounds, the plasma concentration of the test compounds in balb/c nude mice was determined: A 25-μL sample of the balb/c nude mouse plasma of each time point after administration was taken, and 200 μL of acetonitrile containing an internal standard (for compound 37, the internal standard was 100 ng/mL verapamil; for compound 39, the internal standard was 100 ng/mL diclofenac) was added. The mixture was vortexed for 5 min and centrifuged at 3700 rpm for 20 min, and the supernatant was mixed with water (1:1). 0.5-2 μL of the supernatant was taken and analyzed by LC/MS/MS. 4. Pharmacokinetic parameters

The IC50 is the concentration that gives 50% inhibition. Low values mean greater potency, high ones weaker potency. Regarding `CCc1c(F)ccc2cc(O)cc(-c3nc4c5c(nc(OCC6(CN7CCOCC7)CC6)nc5c3F)N3C[C@H]5CC[C@H](N5)[C@H]3CO4)c12` [Example 1, 5-Ethyl-6-fluoro-4-((5aS,6S,9R)-1-fluoro-12-((1-(morpholinomethyl)cyclopropyl)methoxy)-5a,6,7,8,9,10-hexahydro-5H-4-oxa-3,10a,11,13,14-pentaaza-6,9-methanonaphtho[1,8-ab]heptalen-2-yl)naphthalen-2-ol], the IC50 in the series with AGS cells came to 16.7 nM; with GP2d cells it was 5.2 nM; in series [1] it was 0.96 nM.
Take `CCc1c(F)ccc2cc(O)cc(-c3nc4c5c(nc(OCC6(CN7C[C@@H]8C[C@H]7CO8)CC6)nc5c3F)N3C[C@H]5CC[C@H](N5)[C@H]3CO4)c12` [Example 2, 4-((5aS,6S,9R)-12-((1-(((15,4S)-2-Oxa-5-azabicyclo[2.2.1]heptan-5-yl)methyl)cyclopropyl)methoxy)-1-fluoro-5a,6,7,8,9,10-hexahydro-5H-4-oxa-3,10a,11,13,14-pentaaza-6,9-methanonaphtho[1,8-ab]heptalen-2-yl)-5-ethyl-6-fluoronaphthalen-2-ol]: in series [1], inhibition was half-maximal at 1.5 nM (IC50).
Regarding `CCc1c(F)ccc2cc(O)cc(-c3nc4c5c(nc(OCC6(CN7C[C@H]8C[C@@H]7CO8)CC6)nc5c3F)N3C[C@H]5CC[C@H](N5)[C@H]3CO4)c12` [Example 3, 4-((5aS,6S,9R)-12-((1-(((1R,4R)-2-Oxa-5-azabicyclo[2.2.1]heptan-5-yl)methyl)cyclopropyl)methoxy)-1-fluoro-5a,6,7,8,9,10-hexahydro-5H-4-oxa-3,10a,11,13,14-pentaaza-6,9-methanonaphtho[1,8-ab]heptalen-2-yl)-5-ethyl-6-fluoronaphthalen-2-ol], half-maximal inhibition in series [1] (IC50) required 1.2 nM.
The half-life is how long it takes for the measured level to halve. Molecule `C[C@@H]1Oc2nc(-c3ccc(F)c4sc(N)c(C#N)c34)c(F)c3nc(OCC4(CN5CCC(=CF)CC5)CC4)nc(c23)N2C[C@H]3CC[C@H](N3)[C@@H]12` [Example 37, 2-Amino-7-fluoro-4-((5S,5aS,6S,9R)-1-fluoro-12-((1-((4-(fluoromethylene)piperidin-1-yl)methyl)cyclopropyl)methoxy)-5-methyl-5a,6,7,8,9,10-hexahydro-5H-4-oxa-3,10a,11,13,14-pentaaza-6,9-methanonaphtho[1,8-ab]heptalen-2-yl)benzo[b]thiophene-3-carbonitrile] had an IC50 in the series on AsPC-1 cells of 2.4 nM. This molecule yielded an IC50 in the series on AGS cells of 4.7 nM. Further, the IC50 in the series with GP2d cells came to 0.4 nM. Moreover, in series [2], the Vd/F was found to be 78 L/kg, the AUC(0-t) is 5.26 µg·h/mL, the CL/F came out at 6.78 L/h/kg and the half-life was 7.95 h. The Cmax in series [2] worked out at 0.699 µg/mL.
In the series on AsPC-1 cells, `C[C@@H]1Oc2nc(-c3cc(N)cc(Cl)c3C(F)(F)F)c(F)c3nc(OCC4(CN5CCC(=C(F)F)CC5)CC4)nc(c23)N2C[C@H]3CC[C@H](N3)[C@@H]12` [Example 39, 3-Chloro-5-((5S,5aS,6S,9R)-12-((1-((4-(difluoromethylene)piperidin-1-yl)methyl)cyclopropyl)methoxy)-1-fluoro-5-methyl-5a,6,7,8,9,10-hexahydro-5H-4-oxa-3,10a,11,13,14-pentaaza-6,9-methanonaphtho[1,8-ab]heptalen-2-yl)-4-(trifluoromethyl)aniline] came in with an IC50 of 2.6 nM. Further, in the series with AGS cells, inhibition was half-maximal at 6.7 nM (IC50). This molecule also returned an IC50 in the series with GP2d cells of 0.17 nM. Besides, in series [2], the Vd/F stood at 64.2 L/kg, the AUC(0-t) amounted to 7.21 µg·h/mL, the CL/F worked out at 4.42 L/h/kg and the half-life is 10.1 h. Also, in series [2], the Cmax is 0.578 µg/mL.
